In patent US11167012B2, “Peptide inhibition of CCR3-mediated diseases or conditions” (The Board of Trustees of the University of Illinois, priority 2015, dated 2021):
Entries after “also recorded” stand apart in the source; their conditions may differ. Primed or numbered codes have the meaning given here. Where no end group is shown, it is not given here. PEG27′ = polyethylene glycol chain of 27 units

Experiments:
CCR3 [1] = target: T1, CCR3 (Homo sapiens, UniProt P51677); test: Eotaxin-induced chemotaxis of 4DE4-CCR3 cells; type: cell-based; set-up: expressed in transfected cells; host or cells: 4DE4 mouse pre-B cell lymphoma line; conditions: 80 nM eotaxin, 4 hours
T1 sequence (P51677 1-355): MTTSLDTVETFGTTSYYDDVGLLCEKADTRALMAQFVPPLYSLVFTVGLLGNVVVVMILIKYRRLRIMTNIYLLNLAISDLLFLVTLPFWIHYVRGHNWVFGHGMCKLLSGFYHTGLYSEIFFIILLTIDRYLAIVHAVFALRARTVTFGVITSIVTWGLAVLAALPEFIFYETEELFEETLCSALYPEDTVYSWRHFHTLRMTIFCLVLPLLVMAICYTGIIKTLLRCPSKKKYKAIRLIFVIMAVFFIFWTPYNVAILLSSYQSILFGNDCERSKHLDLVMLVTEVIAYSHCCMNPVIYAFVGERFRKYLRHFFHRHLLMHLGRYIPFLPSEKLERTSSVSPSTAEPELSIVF
Procedure: Cells were pretreated with, and then allowed to migrate towards, 80 nM eotaxin in the presence of the various CCR3 transmembrane peptides for 4 hours. Data are from three independent experiments. Error bars represent SEM.
To determine the effects of these peptides on CCR3-mediated chemotaxis, 4DE4-CCR3 cells were allowed to migrate to eotaxin/CCL11 in the presence of each peptide. 4DE4-CCR3, a mouse pre-B cell lymphoma line engineered to stably express human CCR3, has been used extensively to study CCR3 expression and CCR3-mediated chemotaxis.

4DE4-CCR3 cells = test: Cytotoxicity in 4DE4-CCR3 cells; type: cell-based, mouse; conditions: concentrations tested in chemotaxis assay
CCR3 [2] = target: T1, CCR3; test: CCR3 surface expression and internalization by flow cytometry, AML14.3D10-CCR3 cells; type: cell-based; set-up: host or cells: AML14.3D10-CCR3 (eosinophilic myelocytic cell line, kept under G418); conditions: for CCR3 internalization or surface accumulation on prolonged treatment: 1 μM for 24, 48 or 72 hour, with or without CCL11 (12 nM); for CCL11-induced receptor internalization: 1 μM, added concurrently with 12 nM CCL11
Procedure: Error bars represent SEM. *p<0.05, compared to untreated cells; n=3.
To assess surface expression of CCR3, cells were stained using PE-conjugated anti-human CCR3 antibody (clone 5E8, BioLegend) or PE-conjugated isotype-matched control after blocking with 10% human AB serum. To determine ligand-induced CCR3 internalization, cells were incubated with various chemokines for 1 hour at 37° C., washed once in staining buffer (PBS+0.5% BSA+0.1% NaN3) before being stained as above. After antibody staining, cells were fixed in 2% paraformaldehyde and analyzed on a QUANTA SC flow cytometer (Beckman Coulter, Indianapolis, Ind.).

[3] = test system: eosinophil recruitment into the esophageal epithelium; test: Mouse model of EoE, oxazalone-challenged L2-IL5 transgenic mice; type: in vivo; conditions: i.v., 24 hours after last OXA challenge
Procedure: Skin sensitized L2-IL5 transgenic mice received topical esophageal oxazalone (OXA) challenges by gavage (i.e.) on days 5, 8 and 12 (FIG. 5A). R3-2-1 peptide nanoparticles, control peptide (R3-2-3) or CCR3 inhibitor UCB35625 (UCB) were given immediately before on days 5, 8, 10 and 12 (FIG. 5A). Esophageal eosinophilia was assessed 24 hours after the last OXA challenge and treatment (day 13). […] Error bars represent SEM.
Mice were treated i.v. with R3-2-1 peptide, scrambled R3-2-3 control peptide ([…]-PEG27-NH2; SEQ ID NO:24), or the allosteric non-selective CCR3 inhibitor, UCB35625. Eosinophil recruitment into the esophageal epithelium was assessed 24 hours after the last OXA challenge by counting eosinophils in 9 high power fields (hpf) covering the total esophagus or 3 hpf covering the distal esophagus.

ERK1/2 phosphorylation = test: Signal transduction assay, Western blotting of phospho-ERK1/2 in AML14.3D10-CCR3 cells; type: cell-based, human; conditions: 10 μM, CCL11-induced
Procedure: Phospho-ERK was detected using a specific antibody. The membrane was stripped and reprobed for total ERK1/2 as loading control. Immunoblots were quantified by densitometry using ImageJ. PD: PD184161, MEK inhibitor.
AML14.3D10-CCR3 cells were serum starved for 16 hours. Cells were pretreated with vehicle control, R3-2-1 or PD184161 for 30 minutes at 37° C., and subsequently stimulated with 8 nM CCL5 or CCL11 for 2 minutes. Stimulation was stopped by adding ice cold PBS. Cells were centrifuged and lysed in RIPA buffer containing protease and phosphatase inhibitors. Cell lysates were resolved on a 12% SDS-PAGE gel (10 μg/lane), transferred to PVDF membrane and blocked in 5% milk. Phospho-ERK1/2 was detected using rabbit monoclonal antibody (clone D13.14.4E, Cell Signaling Technology, Danvers, Mass.) and secondary goat anti-rabbit IgG-HRP (Santa Cruz Biotechnology, Dallas, Tex.). As a loading control, the membrane was subsequently stripped and re-probed with an antibody against total ERK1/2 (clone 127F5, Cell Signaling Technology).
Concurrent to ligand binding and activation, CCR3 undergoes ligand-induced desensitization and internalization (Zimmermann, et al. (1999) J. Biol. Chem. 274:12611-12618). As part of the desensitization process, CCR3 is degraded. This is thought to occur via β-arrestin recruitment to phosphorylated CCR3 and subsequent sequestration of the receptor into endosomal compartments, eventually leading to degradation. β-arrestin signaling is central in this process and is characterized by a late activation of signaling pathways such as MAPK/ERK1/2, in contrast to acute activation by G proteins. […] Therefore, the R3-2-1 peptide is a biased antagonist in that it inhibits the […] of CCL11 ligand-induced β-arrestin signaling, whereas the small molecule inhibitors are unbiased antagonists.

CCR3 [4] = target: T1, CCR3; test: Chemotaxis assay (Transwell), AML14.3D10-CCR3 cells; type: cell-based; set-up: host or cells: AML14.3D10-CCR3 (eosinophilic myelocytic cell line, kept under G418); conditions: for tolerance to inhibition of CCL11-induced chemotaxis: 1 μM for 24, 48 or 72 hour, CCL11 12 nM; for inhibition of CCR3-mediated chemotaxis induced by Eotaxin/CCL11, RANTES/CCL5 and MEC/CCL28: AML14.3D10-CCR3 cells, R3-2-1 0.4, 2 or 10 μM
Procedure: AML14.3D10-CCR3 (ATCC, Manassas, Va.; Daugherty, et al. (1996) J. Exp. Med. 183:2349-2354) were maintained in RPMI-1640 supplemented with 10% FBS, 1.5 g/L sodium bicarbonate, 4.5 g/L glucose, 2 mM L-glutamine, 10 mM HEPES, 1 mM sodium pyruvate, 50 μM β-mercaptoethanol, and 2 mg/ml G418 in a humidified incubator with 5% CO2 at 37° C.
Cell migration was determined using a 96-well […]® system (Corning, Tewksbury, Mass.). […] The two chambers were separated by a polycarbonate filter with 5 μm pores. For AML14.3D10-CCR3 cells, 2×10^5 cells/well were resuspended in RPMI-1640+0.1% BSA and allowed to migrate for 4 hours at 37° C. For blood eosinophils, 1×10^5 cells/well were resuspended in X-VIVO 10+0.5% BSA and allowed to migrate for 3 hours at 37° C. Migrated cells were counted using a Beckman QUANTA SC flow cytometer. All experiments were performed in duplicate. Checkerboard analysis was done to distinguish chemotaxis from chemokinesis.
Primary eosinophils and the stable CCR3+eosinophilic myelocytic cell line, AML14.3D10-CCR3 (Daugherty, et al. (1996) J. Exp. Med. 183:2349-2354) undergo CCR3-mediated chemotaxis induced by multiple chemokines including eotaxin/CCL11, RANTES/CCL5, MCP-4/CCL13, and MEC/CCL28 (Daugherty, et al. (1996) J. Exp. Med. 183:2349-2354; Pan, et al. (2000) J. Immunol. 165:2943-2949).

CCR3 [5] = target: T1, CCR3; test: Chemotaxis assay (Transwell), blood eosinophils; type: cell-based; set-up: host or cells: AML14.3D10-CCR3 (eosinophilic myelocytic cell line, kept under G418); conditions: scramble peptide control
Source text: Blood eosinophils were purified from anti-coagulated blood drawn from mild allergic asthmatic subjects. Peripheral blood was subjected to density gradient centrifugation over FICOLL-PAQUE® Plus (GE Healthcare, Pittsburgh, Pa.) media to obtain a pellet containing erythrocytes and granulocytes. After erythrocyte lysis via hypotonic shock, eosinophils were purified by negative selection using a cocktail of antibody-conjugated magnetic beads against non-eosinophils (Miltenyi Biotec, Auburn, Calif.). The eosinophils were resuspended in X-VIVO 10 without phenol red. The purity and viability of the eosinophils obtained was routinely >97% as assessed by Hema III and trypan blue staining, respectively.
Cell migration was determined using a 96-well TRANSWELL® system (Corning, Tewksbury, Mass.). Briefly, 200 μl chemoattractant or control medium was added to the lower chamber while 100 μl cells were added to the upper chamber. The two chambers were separated by a polycarbonate filter with 5 μm pores. For AML14.3D10-CCR3 cells, 2×10^5 cells/well were resuspended in RPMI-1640+0.1% BSA and allowed to migrate for 4 hours at 37° C. […] Migrated cells were counted using a Beckman QUANTA SC flow cytometer. All experiments were performed in duplicate. Checkerboard analysis was done to distinguish chemotaxis from chemokinesis.
Primary eosinophils and the stable CCR3+eosinophilic myelocytic cell line, AML14.3D10-CCR3 (Daugherty, et al. (1996) J. Exp. Med. 183:2349-2354) undergo CCR3-mediated chemotaxis induced by multiple chemokines including eotaxin/CCL11, RANTES/CCL5, MCP-4/CCL13, and MEC/CCL28 (Daugherty, et al. (1996) J. Exp. Med. 183:2349-2354; Pan, et al. (2000) J. Immunol. 165:2943-2949). […] In addition, R3-2-1 inhibits chemotaxis of both AML14.3D10-CCR3 and blood eosinophils induced by CCL11/Eotaxin-1, CCL24/Eotaxin-2, and CCL26/Eotaxin-3 in a dose-dependent fashion (Table 3).

| Compound | cytotoxicity (4DE4-CCR3 cells) | CCL11-induced receptor internalization (CCR3 [2]) | acute (2-5 minutes) and late (30 minutes) phase phosphorylation of ERK1/2 (ERK1/2 phosphorylation) | also measured |
| --- | --- | --- | --- | --- |
| Ac-VTFGVITSIVTWGLAVLAALPEFIFDDDK [TM4] | – | – | – | inhibition of eotaxin-induced chemotaxis of 4DE4-CCR3 cells (CCR3 [1]): no significant CCR3 antagonism |
| Ac-KDDDQFVPPLYSLVFTVGLLGNVVVVMILI [TM1] | moderately cytotoxic | – | – | – |
| CC[N+]1(C/C2=C/CCCCCC2)CCC(NC(=O)C2c3cc(Cl)ccc3Oc3ccc(Cl)cc32)CC1.[I-] (stereo not drawn) [UCB35625, 1,4-trans-1-(1-Cycloocten-1-ylmethyl)-4-[[(2,7-dichloro-9H-xanthen-9-yl)carbonyl]amino]-1-ethylpiperidinium iodide, reference compound] | – | significantly inhibit chemokine-induced CCR3 internalization | inhibits the late phase to a higher degree than the early phase phosphorylation | CCR3 internalization or surface accumulation on prolonged treatment (CCR3 [2]): surface accumulation; eosinophil recruitment into distal and total esophageal epithelium [3]: had no effect; also recorded: ineffective in reducing eosinophil recruitment; tolerance to inhibition of CCL11-induced chemotaxis (CCR3 [4]): slowly lose their ability to antagonize CCL11-induced chemotaxis; inhibition of CCR3-mediated chemotaxis induced by Eotaxin/CCL11, RANTES/CCL5 and MEC/CCL28 (CCR3 [4]): potent inhibitor of chemotaxis induced by multiple CCR3 agonists in vitro |
| Ac-KDDDLLSGFYHTGLYSEIFFIILLTI [TM3] | – | – | – | inhibition of eotaxin-induced chemotaxis of 4DE4-CCR3 cells (CCR3 [1]): no significant CCR3 antagonism |
| LIFVIMAVFFIFWTPYNVAILDDDC [TM6] | highly cytotoxic | – | – | – |
| CDDDTIFCLVLPLLVMAICYTGII [TM5] | highly cytotoxic | – | – | – |
| COC(=O)[C@H](Cc1ccc([N+](=O)[O-])cc1)NC(=O)c1cccc2ccccc12 [SB328437, N-(1-Naphthalenylcarbonyl)-4-nitro-L-phenylalanine methyl ester, reference compound] | – | significantly inhibit chemokine-induced CCR3 internalization | inhibits both acute and late phase phosphorylation | CCR3 internalization or surface accumulation on prolonged treatment (CCR3 [2]): surface accumulation; tolerance to inhibition of CCL11-induced chemotaxis (CCR3 [4]): slowly lose their ability to antagonize CCL11-induced chemotaxis; inhibition of CCR3-mediated chemotaxis induced by Eotaxin/CCL11, RANTES/CCL5 and MEC/CCL28 (CCR3 [4]): only inhibits CCL11-induced but not CCL5- or CCL28-induced chemotaxis |
| LLNLAISDLLFLVTLPFWIHYDDDC [TM2] | undetectable or low cytotoxicity | – | – | – |
| CDDDVMLVTEVIAYSHCCMNPVIYAFV [TM7] | highly cytotoxic | – | – | – |
| YLFLLVTVFHIWLPHNRGHVWGFDDD-PEG27-NH2 (YLFLLVTVFHIWLPHNRGHVWGFDDD-{PEG27′-NH2}) [Peptide R3-2-3, reference compound] | – | neither R3-2-1 (1 μM) nor R3-2-3 (1 μM) interfere with CCL11-induced receptor internalization | does not inhibit either acute or late phase phosphorylation | CCL11-, CCL24-, or CCL26-induced chemotaxis of blood eosinophils (CCR3 [5]): did not inhibit |
